# Data taken from patent US6596772B1, “Phosphate mimics and methods of treatment using phosphatase inhibitors” (Sugen, Inc., priority 1999, dated 2003).
# What was measured:
# PTPs = assay: Direct comparison of R groups against the PTPs; type: biochemical, human; details: change of the R group from CF3SO2NH—
# Protocol: (§1) The effect of the compounds on PTP was evaluated at 25° C. using pNPP or FDP as substrate. PTP was pre-incubated for fifteen minutes with various concentrations of compound. Substrate was then added at a fixed concentration (usually equal to the Km previously calculated). After 10 minutes, NaOH was added to stop the reaction. The hydrolysis of pNPP was followed at 410 nm on the Biotek Powerwave 200 microplate scanning spectrophotometer. The percent inhibition was calculated as follows: Percent Inhibition=[(control signal−compound signal)/control signal] ×100%. The IC50 was then determined by interpolation of a percent inhibition versus compound concentration plot.
# PTP DEP1 = biological target: T1, PTP DEP1 (Homo sapiens, UniProt Q12913); assay: PTP IC50 assay, pNPP or FDP as substrate; type: biochemical; details: 25° C.
# T1 construct: GST-fusion proteins encompassing the entire cytoplasmic domain was done by PCR; made in house; host or cells: E. coli BL-21 (pGEX 2T)
# T1 sequence (Q12913 997-1337 limits assumed): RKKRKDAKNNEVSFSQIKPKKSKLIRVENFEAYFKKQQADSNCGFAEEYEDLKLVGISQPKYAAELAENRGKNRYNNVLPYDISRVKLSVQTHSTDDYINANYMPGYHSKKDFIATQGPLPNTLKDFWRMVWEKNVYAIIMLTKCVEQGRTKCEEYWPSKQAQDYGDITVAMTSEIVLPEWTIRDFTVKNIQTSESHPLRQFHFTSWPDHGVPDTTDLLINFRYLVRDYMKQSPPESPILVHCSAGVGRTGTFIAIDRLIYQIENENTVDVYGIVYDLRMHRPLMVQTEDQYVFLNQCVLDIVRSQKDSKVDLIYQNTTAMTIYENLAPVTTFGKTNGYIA
# Protocol: (§2) The following in vitro assay procedure is preferred to determine the level of activity and effect of the different compounds of the present invention on one or more of the PTPs. Similar assays can be designed along the same lines for any PTP using techniques well known in the art.
# (§3) The catalytic assays described herein are performed in a 96-well format. The general procedure begins with the determination of PTP optimal pH using a three-component buffer system that minimizes ionic strength variations across a wide range of buffer pH. Next, the Michaelis-Menten constant, or Km, is determined for each specific substrate-PTP system. This Km value is subsequently used as the substrate reaction concentration for compound screening. Finally, the test PTP is exposed to varying concentrations of compound for fifteen minutes and allowed to react with substrate for ten minutes. The results are plotted as percent inhibition versus compound concentration and the IC50 interpolated from the plot.
# (§4) All assays were performed using pNPP or FDP as substrate. The optimum pH was determined for each PTP used.
# (§5) PTPase activity was assayed at 25° C. in a 100-μl reaction mixture containing an appropriate concentration of pNPP or FDP as substrate. The reaction was initiated by addition of the PTP and quenched after 10 min by addition of 50 μl of IN NaOH. The non-enzymatic hydrolysis of the substrate was corrected by measuring the control without the addition of the enzyme. The amount of p-nitrophenol produced was determined from the absorbance at 410 nm. To determine the kinetic parameter, Km, the initial velocities were measured at various substrate concentrations and the data were fitted to the Michaelis equation where velocity=(Vmax*[S])/(Km+[S]), and [S]=substrate reaction concentration.
# as §1
# (§6) Plasmids designed for bacterial GST-PTP fusion protein expression were derived by insertion of PCR-generated human PTP fragments into pGEX vectors (Pharmacia Biotech). Several of these constructs were then used to subclone phosphatases into pFastBac-1for expression in Sf-9 insect cells. Oligonucleotides used for the initial amplification of PTP genes are shown below. The cDNAs were prepared using the Gilbo BRL superscript preamplification system on RNAs purchased from Clontech.
# The full length DEP1 cDNA was isolated from a human mammary cDNA library (Clontech). The construction of GST-fusion proteins encompassing the entire cytoplasmic domain was done by PCR using the following oligos; 5′oligo: 5′-[…]-3′ (SEQ ID NO: 20) 3′oligo: 5′-[…]-3′ (SEQ ID NO: 21) It was subsequently ligated into the Eco RI/Bam H1 sites of pGEX 2T.
# PTP ALPHA = biological target: T2, PTP ALPHA (Homo sapiens, UniProt P18433); assay: PTP IC50 assay, pNPP or FDP as substrate; type: biochemical; details: 25° C.
# T2 construct: RTPα intracellular domain construct was obtained; made in house; host or cells: E. coli BL-21 (pGEX 3X)
# Protocol: as §2, §3, §4, §5, §1, §6
# RTPα intracellular domain construct was obtained, Schlessinger et al., U.S. Pat. No. 5,888,794, the contents of which are hereby incorporated in their entirety into the present application. The RTPα fragment was cloned into pGEX 3× using the following procedure. The portion from EclX I/Xma III/Eag I (N-terminus blunted by Klenow) to Eco RV was cloned into the Sma I site. The EclX I site is approximately 15 residues downstream of the transmembrane domain.
# PTP PEST = biological target: T3, PTP PEST (Homo sapiens, UniProt Q05209); assay: PTP IC50 assay, pNPP or FDP as substrate; type: biochemical; details: 25° C.
# T3 construct: made in house; host or cells: E. coli BL-21 (pGEX 6P-1)
# T3 sequence (Q05209 1-343 limits assumed): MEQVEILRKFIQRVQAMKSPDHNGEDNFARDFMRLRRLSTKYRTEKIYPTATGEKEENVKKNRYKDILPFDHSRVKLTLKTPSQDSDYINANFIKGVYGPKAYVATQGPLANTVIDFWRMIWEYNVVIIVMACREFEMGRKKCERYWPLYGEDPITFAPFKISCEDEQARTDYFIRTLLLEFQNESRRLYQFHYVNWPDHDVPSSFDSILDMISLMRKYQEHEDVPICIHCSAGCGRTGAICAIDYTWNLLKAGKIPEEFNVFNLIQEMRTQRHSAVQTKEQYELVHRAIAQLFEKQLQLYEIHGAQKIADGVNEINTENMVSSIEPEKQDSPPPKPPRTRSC
# Protocol: as §2, §3, §4, §5, §1, §6
# The PTP PEST CDNA was amplified from an HeLa cDNA library (Clonetech RNA) using the following oligonucleotides: 5′oligo: 5′-[…]-3′ (SEQ ID NO: 14) 3′oligo: 5′-[…]-3′ (SEQ ID NO: 15) It was subsequently ligated into the Eco RI/Xho I sites of pGEX 6P-1.
# PTP ZETA = biological target: T4, PTP ZETA (Homo sapiens, UniProt P23471); assay: PTP IC50 assay, pNPP or FDP as substrate; type: biochemical; details: 25° C.
# T4 construct: made in house; host or cells: E. coli BL-21 (pGEX 6P-1)
# Protocol: as §2, §3, §4, §5, §1, §6
# The PTP Zeta cDNA was amplified from human placenta single strand cDNA (Clontech RNA) using the following oligonucleotides 5′oligo: 5′-[…]-3′ (SEQ ID NO: 10) 3′oligo: 5′-[…]-3′ (SEQ ID NO: 11) and subsequently ligated into pGEX 6P-1 Eco RI/Xho I sites.
# T4 sequence (P23471 1667-2028 limits assumed): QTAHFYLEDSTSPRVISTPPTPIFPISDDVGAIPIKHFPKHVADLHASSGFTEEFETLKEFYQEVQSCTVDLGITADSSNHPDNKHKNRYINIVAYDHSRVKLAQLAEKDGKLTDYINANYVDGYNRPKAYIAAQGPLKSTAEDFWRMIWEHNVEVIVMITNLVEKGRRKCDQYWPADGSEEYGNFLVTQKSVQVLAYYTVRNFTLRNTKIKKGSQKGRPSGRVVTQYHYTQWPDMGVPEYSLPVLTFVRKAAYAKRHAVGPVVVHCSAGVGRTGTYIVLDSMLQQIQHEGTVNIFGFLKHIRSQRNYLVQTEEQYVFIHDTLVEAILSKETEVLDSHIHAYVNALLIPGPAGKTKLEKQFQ
Structure (SMILES),activity relative to the CF3SO2NH— compound (PTPs),IC50 (PTP DEP1),IC50 (PTP ALPHA),IC50 (PTP PEST),IC50 (PTP ZETA)
CS(=O)(=O)Nc1ccc(Oc2ccc(Oc3ccc(NS(C)(=O)=O)cc3)cc2)cc1 [CH3SO2NH—],dramatic decrease in activity,,,,
Nc1ccc(Oc2ccc(Oc3ccc(N)cc3)cc2)cc1 [NH2],complete loss of activity,,,,
"O=S(=O)(c1ccc(CCc2ccc(S(=O)(=O)C(F)(F)F)cc2)cc1)C(F)(F)F [Example 4, 1,2-Bis(4-trifluoromethylsulfonylphenyl)ethane]",,26.1 µM,> 100 µM,> 100 µM,> 100 µM
"O=C(NCc1ccc(S(=O)(=O)C(F)(F)F)cc1)c1ccccc1 [Example 6, N-(4-Trifluoromethylsulfonylbenzyl)benzamide]",,> 100 µM,> 100 µM,> 100 µM,> 100 µM
"CC(C)(COc1ccc(NS(=O)(=O)C(F)(F)F)cc1)COc1ccc(NS(=O)(=O)C(F)(F)F)cc1 [Example 68, 1,3-Bis(4-trifluoromethylsulfonamidophenoxy)-2,2-dimethylpropane]",,25 µM,27 µM,9.33 µM,> 100 µM
"O=S(=O)(Nc1ccc(OCCCOc2ccc(NS(=O)(=O)C(F)(F)F)cc2)cc1)C(F)(F)F [Example 69, 1,3-Bis(4-trifluoromethylsulfonamidophenoxy)propane]",,> 100 µM,31 µM,7.86 µM,> 100 µM
"O=S(=O)(c1ccc(COCc2ccc(S(=O)(=O)C(F)(F)F)cc2)cc1)C(F)(F)F [Example 1, Bis (4-trifluoromethylsulfonylbenzyl) ether]",,24.2 µM,> 100 µM,> 100 µM,> 100 µM
"O=S(=O)(c1ccc(COc2ccc(S(=O)(=O)C(F)(F)F)cc2)cc1)C(F)(F)F [Example 2, 4-Trifluoromethylsulfonylbenzyl 4-trifluoromethylsulfonylphenyl ether]",,16.5 µM,> 100 µM,25.6 µM,> 100 µM
